Laboratory results: paper PMC12386809, “Phenanthrene Monomers and Dimers from Juncus tenuis with Antiproliferative Activity and Synergistic Effect with Doxorubicin Against Human Colon Cancer Cell Lines” (International Journal of Molecular Sciences, 2025)
Values after ≈ are worked out from the molar mass of the structure shown.

Assays:
[1] = test system: multidrug-resistant COLO 320 cells; assay: Drug combination assay with doxorubicin (Chou-Talalay, MTT); format: cell-based, human
Experimental: One promising approach involves the discovery of new bioactive natural products. To explore this, a chemosensitivity assay was conducted to examine the in vitro interactions between the isolated compounds and the antineoplastic agent doxorubicin, a substrate of P-glycoprotein (P-gp). A combination chemotherapy model was applied using human COLO 320 colon carcinoma cells. The combination index (CI), calculated according to the Chou–Talalay method, was used to evaluate drug–drug interactions, classifying them as synergistic (CI < 1), additive (CI = 1), or antagonistic (CI > 1) (Table 4).
The multidrug-resistant COLO 320 cell line was used to perform the drug combination assay. Doxorubicin (2 mg/mL, Teva Pharmaceuticals, Budapest, Hungary) was serially diluted horizontally, starting with 8.6 µM. The resistance modifier was subsequently diluted vertically, with the starting concentration determined based on the IC50 value. Doxorubicin was diluted horizontally in 100 µL, while the resistance modifiers were diluted vertically in 50 µL in the microtiter plate. The compounds and doxorubicin were prepared as separate dilutions. The cells were seeded at a density of 6 × 10^3 cells per well into 100 µL of medium and incubated for 24 h at 37 °C in a 5% CO2 atmosphere prior to treatment. After this period, the culture medium was removed, and 50 µL of fresh medium was added to each well, followed by the addition of 50 µL of the diluted compounds, resulting in a final volume of 200 µL per well. The plates were then incubated for 72 h at 37 °C under 5% CO2. The cell viability was assessed at the end of incubation using the MTT assay, as described previously. Drug interactions were analyzed using CompuSyn software (Version 1.00).
The dose–response curves for individual agents and their combinations were fitted to a linear model based on the median-effect equation to calculate the median effective dose (IC50) and the slope (m). The quality of the fit was evaluated using the linear correlation coefficient (r), and only data with r > 0.90 are reported. The extent of drug interaction was quantified using the combination index (CI), where CI ≈ 1 indicated an additive effect, CI < 1 signified synergy, and CI > 1 denoted antagonism.

[2] = test system: NCI 90 KB (human epidermoid nasopharynx carcinoma) cells; parameters: method as in PMID 830696; conditions: NCI 90 KB cells; cited from earlier work
[3] = test system: COLO 205 (doxorubicin-sensitive) human colonic adenocarcinoma cells; assay: MTT antiproliferative assay, COLO 205; format: cell-based; conditions: Homo sapiens, COLO 205, 72 h, read-out: IC50 (µM) ± SD COLO 205
Experimental: (§1) The antiproliferative effects of the isolated phenanthrenes (compounds 1–19) were evaluated using human cancer cell lines, including doxorubicin-sensitive colonic adenocarcinoma COLO 205 and multidrug-resistant colonic adenocarcinoma COLO 320/MDR-LRP (which expresses P-glycoprotein [MDR1] and LRP), as well as non-cancerous human lung fibroblast CCD-19Lu cells. CCD-19Lu was chosen because it is a well-characterized, non-tumorigenic cell line commonly used to assess general cytotoxicity. Moreover, data from the literature support the use of lung fibroblast cell lines—including CCD-19Lu—as normal controls in studies involving colon cancer cells such as Colo 205 and Colo 320 [33]. The thiazolyl blue tetrazolium bromide (MTT) assay was employed to determine the concentration of each compound required to inhibit 50% of the cell viability (IC50), as summarized in Table 3.
(§2) The human colon adenocarcinoma cells—COLO 205 (CCL-222, doxorubicin-sensitive) and COLO 320/MDR-LRP (ATCC-CCL-220.1, multidrug-resistant, expressing P-gp)—were cultured in RPMI 1640 medium supplemented with 10% heat-inactivated fetal bovine serum, 2 mM of L-glutamine, 1 mM of sodium pyruvate, and 100 mM of HEPES. The non-cancerous human lung fibroblast cell line CCD-19Lu was maintained in Eagle’s Minimal Essential Medium (EMEM; containing 4.5 g/L of glucose) supplemented with a non-essential amino acid mixture, selected vitamins, and 10% heat-inactivated fetal bovine serum. All of the cell lines were detached using 0.25% trypsin and 0.02% EDTA for 5 min at 37 °C. The cell lines were obtained from LGC Promochem (Teddington, England).
(§3) Human colonic adenocarcinoma cell lines—doxorubicin-sensitive COLO 205 and multidrug-resistant COLO 320—as well as the non-cancerous human lung fibroblast cell line CCD-19Lu were used to evaluate the effects of the test compounds on cell proliferation. The assays were conducted in 96-well flat-bottomed microtiter plates. Stock solutions of the compounds were prepared in dimethyl sulfoxide (DMSO), with the final DMSO concentration kept below 1% in all samples. The compounds were diluted in 100 µL of the appropriate culture medium. Adherent cells were cultured in EMEM supplemented with 10% heat-inactivated fetal bovine serum and seeded into 96-well plates at a density of 6 × 10^3 cells per 100 µL per well. The cells were allowed to adhere for 24 h at 37 °C in a humidified incubator with 5% CO2. After incubation, the medium was removed and replaced with 100 µL of fresh medium. Serial dilutions of the compounds were prepared in separate plates and added to the cells, starting from a concentration of 100 µM with twofold serial dilutions (final concentration range: 100–0.19 µM). The cells were then incubated for 72 h at 37 °C. At the end of the incubation period, 20 µL of thiazolyl blue tetrazolium bromide (MTT) solution (5 mg/mL, Sigma) was added to each well. After 4 h of incubation at 37 °C, 100 µL of 10% sodium dodecyl sulfate (SDS) in 0.01 M HCl was added to solubilize the formazan crystals, and the plates were incubated overnight at 37 °C. Cell viability was assessed by measuring the optical density (OD) at 540/630 nm using a Multiscan EX ELISA reader (Thermo Labsystems, Cheshire, WA, USA).
(§4) The inhibitory concentration that reduced cell growth by 50% (IC50) was determined from the dose–response curves. The percent inhibition was calculated using the formula100 − ((OD_sample − OD_medium control)/(OD_cell control − OD_medium control)) × 100
(§5) Dose–response curves were generated by plotting the percent inhibition against the logarithm of the compound concentrations and fitted using Prism5 software (Version 6, GraphPad Software Inc., San Diego, CA, USA). The IC50 values were derived from four independent experiments conducted in parallel for each cell line and are reported as the mean values.

[4] = test system: COLO 320/MDR-LRP multidrug-resistant human colonic adenocarcinoma cells; assay: MTT antiproliferative assay, COLO 320; format: cell-based; conditions: Homo sapiens, COLO 320, 72 h, COLO 320 (multidrug-resistant), read-out: IC50 (µM) ± SD COLO 320
Experimental: as §1, §2, §3, §4, §5

HeLa cells = test system: HeLa cells; parameters: method as in PMID 33348712; conditions: cited from earlier work
[5] = test system: HT22 cells (mouse hippocampal neuroblastoma cell line); parameters: method as in doi:10.1007/s11101-018-9561-5, PMID 25794817; conditions: 100 µM, 24 h; cited from earlier work
[6] = test system: CCD-19Lu non-cancerous human lung fibroblast cells; assay: MTT antiproliferative assay, CCD-19Lu; format: cell-based; conditions: 72 h, CCD-19Lu non-tumorigenic fibroblasts, read-out: IC50 (µM) ± SD CCD-19Lu
Experimental: as §1, §2, §3, §4, §5

HepG2 cells = conditions: cited from earlier work
[7] = parameters: method as in PMID 31125040; conditions: cited from earlier work
HepG-2 = test system: HepG-2; parameters: method as in PMID 26072042; conditions: cited from earlier work
MCF-7 = test system: MCF-7; parameters: method as in PMID 26072042; conditions: cited from earlier work
SMMC-7721 = test system: SMMC-7721; parameters: method as in PMID 26072042; conditions: cited from earlier work

In the case of `C=Cc1c(C)c(O)cc2c1-c1ccc(O)c(C)c1CC2` [Compound 11, juncusol], the “CI at ED50 (combination index)” value ([1]; combination with doxorubicin, COLO 320, 72 h, Chou-Talalay) is listed as 0.582, the Interaction ([1]; interaction with doxorubicin in COLO 320, class from CI) is listed as “synergism (0.3 < CI < 0.7, synergism)” and the ED50 [2] is listed as 0.3 µg/mL (≈ 1.13 µM). For the same compound, the IC50 [3] was 31.9 ± 1.91 µM, the IC50 [4] was 36.2 ± 3.81 µM and the IC50 (HeLa cells) was 0.5 µM. The “decrease in MTT reduction” value [5] was 25.4% and the IC50 [6] was 44.4 ± 2.82 µM.

For juncunol, the apoptotic cells (HepG2 cells; HepG2, concentration-dependent (IC50 value ± 25%)) is given as “increase in the number of apoptotic cells”, the cell cycle arrest (HepG2 cells; HepG2) is given as “G0/G1 phase” and the Δψm (HepG2 cells; HepG2) is given as “decrease in Δψm”. For the same compound, the IC50 (HepG2 cells; HepG2 cells) was 18 µM and the hemolytic properties [7] was “no hemolytic properties”.

In the case of `C=Cc1cc(O)cc2c1-c1cc(-c3c(O)cc(C=C)c4c3ccc3c(C)c(O)ccc34)c(O)c(C)c1CC2` [effususin B], the IC50 (HepG-2) is listed as 12.9 µM, the IC50 (MCF-7) is listed as 12.5 µM and the IC50 (SMMC-7721) is listed as 13.6 µM.
